This is an account of results in US20100004257A1 (University of South Floria, priority 2007, published 2010).

The structures appear in SMILES notation.

Test [1] concerns pAkt, cleaved PARP in PC9 cells. As to the kind of experiment: Western analysis of pAkt, pSTAT3 and cleaved PARP. Type of test: cell-based, Human. To be noted: 24 hours.
Test [2] deals with pAkt, pSTAT3, cleaved PARP in H1650 cells. As to the kind of experiment: Western analysis of pAkt, pSTAT3 and cleaved PARP. It counts as cell-based, Human. To be noted: 24 hours.
Test [3] deals with pAkt, pSTAT3, cleaved PARP in H1975 cells. Briefly: Western analysis of pAkt, pSTAT3 and cleaved PARP. It counts as cell-based, Human. Particulars: 24 hours.
In test [4] the test system is pTyr416 Src (pSrc) family in PC9 cells. As to the kind of experiment: Western analysis of Src phosphorylation status. Type of test: cell-based, Human. To be noted: 24 hours.
The test system of test [5] is pTyr416 Src (pSrc) family in H1650 cells. Briefly: Western analysis of Src phosphorylation status. It counts as cell-based, Human. To be noted: H1650; increasing concentrations; 24 hours.
Test [6] deals with pTyr416 Src (pSrc) family in H1975 cells. As to the kind of experiment: Western analysis of Src phosphorylation status. It counts as cell-based, Human. Particulars: 24 hours, dasatinib at 50 nmol/L.
A further test deals with A549 cells. Briefly: Cell cycle profile and cyclin D/p27 Western analysis. To be noted: 24 hours, gefitinib 1 μmol/L, dasatinib 500 nmol/L. It counts as cell-based, Human.
The test system of the next test is H358 cells. To be noted: 24 hours, gefitinib 1 μmol/L, dasatinib 500 nmol/L, or the combination.

With `COc1cc2ncnc(Nc3ccc(F)c(Cl)c3)c2cc1OCCCN1CCOCC1` [gefitinib], the pAkt result is listed as “completely inhibits pAkt” in test [1] (50 nmol/L); “minimal effect on pAkt” in test [2] (H1650 grown in 5% BCS, dasatinib at 50 nmol/L); “inhibit pAkt” in test [2] (H1650 in low serum with exogenous EGF, 50 nmol/L). Also, the PARP cleavage entry is “induces PARP cleavage” in test [1] (gefitinib at 50 nmol/L, dasatinib at increasing concentrations); “degree of PARP cleavage is less” in test [2] (H1650 grown in 5% BCS); “no PARP cleavage” in test [3]. Moreover, the pSTAT3 result in test [2] (H1650, any growth conditions) was “No effect”. Further, in test [3], the “pAkt or pSTAT3” value is listed as “neither gefitinib nor dasatinib affects”. In addition, the pSrc entry in test [4] (250 nmol/L) was “decrease in pSrc”; in test [4] (1 μmol/L), “incomplete”; in test [5], “incomplete”; in test [6] it was “minimal changes”. Also, the cell cycle profile result with A549 cells (FIG. 12) is “no effect”. For the same compound, the “cyclin D3 and p27 proteins” value with A549 cells (FIG. 13) was “no changes”. Moreover, in the test on H358 cells, the “G1 cell cycle arrest” value is listed as “G1 cell cycle arrest to the same extent”. Also, the “cyclins D1 and D3 and p27 protein levels” value in the test on H358 cells was “reduced cyclins D1 and D3 and increased p27 protein levels”.
